Consider 17 compounds from BindingDB's records for doi:10.1016/j.bioorg.2016.12.009 (Universiti Teknologi Mara (Uitm), 2017).

Sequence of Alpha-glucosidase MAL12 (P53341 whole entry): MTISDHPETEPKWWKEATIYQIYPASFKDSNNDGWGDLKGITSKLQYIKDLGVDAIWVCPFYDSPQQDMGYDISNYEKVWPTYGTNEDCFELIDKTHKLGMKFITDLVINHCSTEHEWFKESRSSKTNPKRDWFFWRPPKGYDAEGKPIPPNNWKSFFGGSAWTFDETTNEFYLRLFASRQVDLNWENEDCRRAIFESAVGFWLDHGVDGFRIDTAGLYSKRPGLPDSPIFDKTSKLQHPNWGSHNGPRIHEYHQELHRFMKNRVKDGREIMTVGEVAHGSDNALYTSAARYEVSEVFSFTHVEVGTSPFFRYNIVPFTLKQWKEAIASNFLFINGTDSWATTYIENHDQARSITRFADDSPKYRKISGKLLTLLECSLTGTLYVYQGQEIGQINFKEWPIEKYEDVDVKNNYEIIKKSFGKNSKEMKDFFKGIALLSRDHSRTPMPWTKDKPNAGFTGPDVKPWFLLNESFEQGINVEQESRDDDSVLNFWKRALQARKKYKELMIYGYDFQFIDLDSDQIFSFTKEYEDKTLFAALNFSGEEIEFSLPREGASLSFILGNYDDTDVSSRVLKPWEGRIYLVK

The assay addresses Alpha-glucosidase MAL12 (Saccharomyces cerevisiae (strain ATCC 204508 / S288c), UniProt P53341). The experiment in a line: Baker's Yeast α-Glucosidase Inhibition Assay. The note with it: pH 6.8; 37 °C. How it is done: The enzyme inhibition was evaluated according to the method previously reported by Zawawi et al. [Zawawi et al., Bioorg. Chem., 23:3119] with slight modification. Various concentration of test compounds (10 μL) were dissolved in DMSO (ranging from 200 to 6.25 μg/mL) and premixed with 95 μL of 50 mM phosphate buffer (pH 6.8). Then, 25 μL of enzyme (0.0625 U/mL) in phosphate buffer saline was added into each well and the plate was incubated at 37 °C for 10 min. Afterward, 25 μl of PNPG in phosphate buffer saline (5 mM) were added and pre-read of the plate was taken by using a microplate reader (Spectrostar Nano BMG Labtech, Germany). The reaction mixture was then incubated at 37 °C for 30 min and change in absorbance at 405 nm was monitored up to 30 min. For negative control, the test samples were replaced with 10 μL of DMSO and acarbose was used as positive control. All experiments were triplicated and the results were expressed as the mean ± S.E.M of three determinations.
A word on the IC50: it is the midpoint of a concentration-inhibition curve. Read a low IC50 as greater potency in that assay. As to `COc1ccccc1NC(=S)NNC(=O)c1ccc(-c2nc3cc(C)c(C)cc3[nH]2)cc1` [2-(4-(5,6-Dimethyl-1H-benzo[d]imidazol-2-yl)benzoyl)-N-(2-methoxyphenyl)hydrazinecarbothioamide (4)], half-maximal inhibition (IC50) was put at 346 µM. In the case of `Cc1cc2nc(-c3ccc(C(=O)NNC(=S)Nc4cccc(F)c4)cc3)[nH]c2cc1C` [2-(4-(5,6-Dimethyl-1H-benzo[d]imidazol-2-yl)benzoyl)-N-(3-fluorophenyl)hydrazinecarbothioamide (7)] it was 247 µM; in that of `COc1cccc(NC(=S)NNC(=O)c2ccc(-c3nc4cc(C)c(C)cc4[nH]3)cc2)c1` [2-(4-(5,6-Dimethyl-1H-benzo[d]imidazol-2-yl)benzoyl)-N-(3-methoxyphenyl)hydrazinecarbothioamide (8)], 71.8 µM. The value for `Cc1cc2nc(-c3ccc(C(=O)NNC(=S)Nc4cccc([N+](=O)[O-])c4)cc3)[nH]c2cc1C` [2-(4-(5,6-Dimethyl-1H-benzo[d]imidazol-2-yl)benzoyl)-N-(3-nitrophenyl)hydrazinecarbothioamide (9)] was 117 µM; that for `Cc1cc2nc(-c3ccc(C(=O)NNC(=S)Nc4ccc(C(F)(F)F)cc4)cc3)[nH]c2cc1C` [2-(4-(5,6-Dimethyl-1H-benzo[d]imidazol-2-yl)benzoyl)-N-(4(trifluoromethyl)phenyl)hydrazinecarbothioamide (15)] was 163 µM; that for `Cc1cc2nc(-c3ccc(C(=O)NNC(=S)Nc4ccc(F)cc4)cc3)[nH]c2cc1C` [2-(4-(5,6-Dimethyl-1H-benzo[d]imidazol-2-yl)benzoyl)-N-(4-fluorophenyl)hydrazinecarbothioamide (12)] was 277 µM.

`COc1ccc(NC(=S)NNC(=O)c2ccc(-c3nc4cc(C)c(C)cc4[nH]3)cc2)cc1` [2-(4-(5,6-Dimethyl-1H-benzo[d]imidazol-2-yl)benzoyl)-N-(4-methoxyphenyl)hydrazinecarbothioamide (13)] registered an IC50 of 305 µM. `Cc1cc2nc(-c3ccc(C(=O)NNC(=S)Nc4ccc([N+](=O)[O-])cc4)cc3)[nH]c2cc1C` [2-(4-(5,6-Dimethyl-1H-benzo[d]imidazol-2-yl)benzoyl)-N-(4-nitrophenyl)hydrazinecarbothioamide (14)] gave an IC50 of 35.8 µM. `Cc1cccc(NC(=S)NNC(=O)c2ccc(-c3nc4cc(C)c(C)cc4[nH]3)cc2)c1` [2-(4-(5,6-Dimethyl-1H-benzo[d]imidazol-2-yl)benzoyl)-N-(m-tolyl)hydrazinecarbothioamide (16)] yielded an IC50 of 219 µM. The value for `Cc1ccc(NC(=S)NNC(=O)c2ccc(-c3nc4cc(C)c(C)cc4[nH]3)cc2)cc1` [2-(4-(5,6-Dimethyl-1H-benzo[d]imidazol-2-yl)benzoyl)-N-(p-tolyl)hydrazinecarbothioamide (17)] was 298 µM. The value for `Cc1cc2nc(-c3ccc(C(=O)NNC(=S)Nc4ccccc4F)cc3)[nH]c2cc1C` [2-(4-(5,6-dimethyl-1H-benzo[d]imidazol-2-yl)benzoyl)-N-(2-fluorophenyl)hydrazinecarbothioamide (3)] was 231 µM; that for `Cc1cc2nc(-c3ccc(C(=O)NNC(=S)Nc4ccccc4Br)cc3)[nH]c2cc1C` [N-(2-bromophenyl)-2-(4-(5,6-dimethyl-1H-benzo[d]imidazol-2-yl)benzoyl)hydrazinecarbothioamide (1)] was 129 µM; that for `Cc1cc2nc(-c3ccc(C(=O)NNC(=S)Nc4ccccc4Cl)cc3)[nH]c2cc1C` [N-(2-chlorophenyl)-2-(4-(5,6-dimethyl-1H-benzo[d]imidazol-2-yl)benzoyl)hydrazinecarbothioamide (2)] was 284 µM. For the compound `Cc1cc2nc(-c3ccc(C(=O)NNC(=S)Nc4ccc(Cl)c(Cl)c4)cc3)[nH]c2cc1C` [N-(3,4-dichlorophenyl)-2-(4-(5,6-dimethyl-1H-benzo[d]imidazol-2-yl)benzoyl)hydrazinecarbothioamide (5)], half-maximal inhibition (IC50) was put at 61.9 µM.

Turning to `Cc1cc2nc(-c3ccc(C(=O)NNC(=S)Nc4cccc(Br)c4)cc3)[nH]c2cc1C` [N-(3-bromophenyl)-2-(4-(5,6-dimethyl-1H-benzo[d]imidazol-2-yl)benzoyl)hydrazinecarbothioamide (6)], the IC50 is 178 µM. The value for `Cc1cc2nc(-c3ccc(C(=O)NNC(=S)Nc4ccc(Br)cc4)cc3)[nH]c2cc1C` [N-(4-bromophenyl)-2-(4-(5,6-dimethyl-1H-benzo[d]imidazol-2-yl)benzoyl)hydrazinecarbothioamide (10)] was 50.6 µM; that for `Cc1cc2nc(-c3ccc(C(=O)NNC(=S)Nc4ccc(Cl)cc4)cc3)[nH]c2cc1C` [N-(4-chlorophenyl)-2-(4-(5,6-dimethyl-1H-benzo[d]imidazol-2-yl)benzoyl)hydrazinecarbothioamide (11)] was 187 µM.
